This is an account of results in patent US20180321220A1, “UNIVERSAL BIOELECTROCHEMICAL METABOLIC FLUX MEASUREMENT SYSTEM AND METHODS OF MAKING AND USING THE SAME” (Saint Louis University, priority 2015, published 2018).

Assay [1] concerns mouse liver mitochondria. Particulars: pyruvate as substrate, in words; Dröse et al. cited; cited from earlier work.
For another assay, the system named is whole drosophilae larvae. Put plainly: Metabolic flux analysis (amperometry) of whole Drosophila larvae. It is filed as in vivo. From the text: Materials. Sodium phosphate monobasic (Sigma), sodium phosphate dibasic (Sigma), sodium chloride (Sigma), sodium pyruvate (Sigma), citric acid (Sigma), rotenone (Sigma), adenosine diphosphate (Sigma), sucrose (Sigma), Tris-EDTA (Sigma), Protease inhibitor cocktail (Sigma), deionized water (in house), and dimethylsulfoxide (Sigma) were used as received. All wild-type Drosophila larvae were hatched and grown on standard cornmeal-agar-molasses-yeast food at room temperature. Individual larvae were selected used for metabolic flux analysis. Mitochondria were isolated from normal mice liver. All steps were carried out at 4° C. Tissues were kept on ice. The liver tissue was homogenized in 3 volumes of Buffer A (0.33 M sucrose, 1.33 m M Tris-EDTA, pH 7.4 buffer containing protease inhibitors) using potter Dounce homogenizer. Once homogenized two more volumes of Buffer A were added and mixed before centrifugation at 1000 Xg for 10-15 mins. The supernatant was then recovered and centrifuged 2 times more to remove impurities. Finally, the supernatant was recovered and centrifuged at 15,000 Xg for 20 mins. The mitochondrial pellet recovered from the bottom of the centrifuge tube and suspended at a protein concentration of 35 mg/ml in phosphate buffered saline at pH 7.5. […]
Metabolic flux analysis. […] When the experiment was ready to begin the sample was added to the electrode. […]

For assay [2], the system named is mouse liver mitochondria. Briefly: Metabolic flux analysis (amperometry) of mouse liver mitochondria suspension. As to conditions: for attenuation of electron flux / inhibitory response (electron flux): in words; for Electron flux generated: rotenone present (1 μl of 1 mg/ml in DMSO), 120 seconds of measurement, 600 mV; for inhibitory response (electron flux): substrate not stated. It is filed as biochemical. From the text: Materials. Sodium phosphate monobasic (Sigma), sodium phosphate dibasic (Sigma), sodium chloride (Sigma), sodium pyruvate (Sigma), citric acid (Sigma), rotenone (Sigma), adenosine diphosphate (Sigma), sucrose (Sigma), Tris-EDTA (Sigma), Protease inhibitor cocktail (Sigma), deionized water (in house), and dimethylsulfoxide (Sigma) were used as received. All wild-type Drosophila larvae were hatched and grown on standard cornmeal-agar-molasses-yeast food at room temperature. Individual larvae were selected used for metabolic flux analysis. Mitochondria were isolated from normal mice liver. All steps were carried out at 4° C. Tissues were kept on ice. The liver tissue was homogenized in 3 volumes of Buffer A (0.33 M sucrose, 1.33 m M Tris-EDTA, pH 7.4 buffer containing protease inhibitors) using potter Dounce homogenizer. Once homogenized two more volumes of Buffer A were added and mixed before centrifugation at 1000 Xg for 10-15 mins. The supernatant was then recovered and centrifuged 2 times more to remove impurities. Finally, the supernatant was recovered and centrifuged at 15,000 Xg for 20 mins. The mitochondrial pellet recovered from the bottom of the centrifuge tube and suspended at a protein concentration of 35 mg/ml in phosphate buffered saline at pH 7.5. Once the extraction was complete the mitochondria was stored at −80° C. in small aliquots for further use.
Metabolic flux analysis. The electrochemical test setup consisted of a USTAT 200 Bipotentiostat coupled to a Dropsens SPE 110 screen printed electrode chip that included a carbon working electrode, a carbon counter electrode, and a silver reference electrode. The working substrate solution consisted of pH 7.40 10 mM phosphate buffer, 137 mM sodium chloride, 10 mM metabolic substrate, and 1 mg/ml adenosine diphosphate. The inhibitor solution consisted of 1 mg/ml rotenone in dimethyl sulfoxide. For uninhibited experiments pure dimethyl sulfoxide was used to maintain consistency. To the electrode 35 μl of substrate solution was dropped on top of the 3 electrode working area of the chip ensuring that all of the electrode surfaces were thoroughly wetted. To this drop, 1 μl of dimethyl sulfoxide was added that may or may not contain inhibitor. When the experiment was ready to begin the sample was added to the electrode. For mitochondrial suspension, 15 μL of the suspension was added to the working area of the chip. For the larvae, one larvae was placed into the drop of solution on to the working electrode. Amperometry was then performed with an applied potential of 600 mV with respect to the reference electrode for 120 seconds.

Turning to `CC1=NS(=O)(=O)c2cc(Cl)ccc2N1` [diazoxide], in the assay on mouse liver mitochondria [1], the “inhibition of electron flux” value is on record as “partial inhibition”.

As for `C=C(C)[C@H]1Cc2c(ccc3c2O[C@@H]2COc4cc(OC)c(OC)cc4[C@@H]2C3=O)O1` [rotenone], the Electron flux generated with whole drosophilae larvae (glucose as substrate, rotenone present (1 μl of 1 mg/ml in DMSO), 120 seconds of measurement, 600 mV) was 3.302×10^−4 micromoles of electrons; in the assay on mouse liver mitochondria [2] (citrate as substrate), 1.536×10^−4 micromoles of electrons; in the assay with mouse liver mitochondria [2] (pyruvate as substrate), 1.435×10^−4 micromoles of electrons. Further, the “attenuation of metabolic flux” value with whole drosophilae larvae (glucose solution, in words) was “diminished”. The results for the “attenuation of electron flux” value in the assay with mouse liver mitochondria [2] (citrate as metabolic substrate) and in the assay with mouse liver mitochondria [2] (pyruvate as metabolic substrate) were “did not exhibit significant inhibition” and “diminished”, respectively. Further, the “inhibitory response (electron flux)” value in the assay with mouse liver mitochondria [2] is given as “strong inhibitory responses”.

On to antimycin, for which, in the assay on mouse liver mitochondria [2], the “inhibitory response (electron flux)” value is on record as “strong inhibitory responses”.
